# In ChEMBL document CHEMBL5113480, “Discovery of novel biphenyl-substituted pyridone derivatives as potent non-nucleoside reverse transcriptase inhibitors with promising oral bioavailability” (Eur J Med Chem, 2022):
# What was measured:
# [1] = tested on: Human immunodeficiency virus 1; experiment: Antiviral activity against HIV-1 IIIB infected in human MT4 cells assessed as reduction in viral replication by MTT assay; type: functional, organism-based; details: Human immunodeficiency virus 1, IIIB
# [2] = tested on: Human immunodeficiency virus 1; experiment: Antiviral activity against HIV-1 ROD infected in human MT4 cells assessed as reduction in viral replication by MTT assay; type: functional, organism-based
# [3] = Selectivity index, ratio of CC50 for cytotoxicity against human MT4 cells to EC50 of Anti-HIV activity against HIV-1 IIIB infected in human MT4 cells; type: toxicity, cell-based; details: read-out: Ratio CC50/EC50
# [4] = tested on: Human immunodeficiency virus 1; experiment: Antiviral activity against HIV-1 L100I mutant infected in human MT4 cells assessed as reduction in viral replication by MTT assay; type: functional, organism-based; details: Human immunodeficiency virus 1, L100I mutant
# [5] = tested on: Human immunodeficiency virus 1; experiment: Antiviral activity against HIV-1 K103N mutant infected in human MT4 cells assessed as reduction in viral replication by MTT assay; type: functional, organism-based; details: Human immunodeficiency virus 1, K103N mutant
# [6] = tested on: Human immunodeficiency virus 1; experiment: Antiviral activity against HIV-1 Y181C mutant infected in human MT4 cells assessed as reduction in viral replication by MTT assay; type: functional, organism-based; details: Human immunodeficiency virus 1, Y181C mutant
# [7] = tested on: Human immunodeficiency virus 1; experiment: Antiviral activity against HIV-1 Y188L mutant infected in human MT4 cells assessed as reduction in viral replication by MTT assay; type: functional, organism-based; details: Human immunodeficiency virus 1, Y188L mutant
# [8] = tested on: Human immunodeficiency virus 1; experiment: Antiviral activity against HIV-1 E138K mutant infected in human MT4 cells assessed as reduction in viral replication by MTT assay; type: functional, organism-based; details: Human immunodeficiency virus 1, E138K mutant
# [9] = tested on: Human immunodeficiency virus 1; experiment: Antiviral activity against HIV-1 F227L-V106A mutant infected in human MT4 cells assessed as reduction in viral replication by MTT assay; type: functional, organism-based; details: Human immunodeficiency virus 1, F227L-V106A mutant
# [10] = tested on: Human immunodeficiency virus 1; experiment: Antiviral activity against HIV-1 K103N-Y181C mutant infected in human MT4 cells assessed as reduction in viral replication by MTT assay; type: functional, organism-based; details: Human immunodeficiency virus 1, K103N-Y181C mutant
# [11] = biological target: Human immunodeficiency virus type 1 reverse transcriptase (Human immunodeficiency virus 1, UniProt Q72547); experiment: Inhibition of wild type HIV-1 Reverse transcriptase
# Cytochrome P450 1A2 = biological target: T1, Cytochrome P450 1A2 (Homo sapiens, UniProt P05177); experiment: Inhibition of CYP1A2 (unknown origin); type: ADME
# T1 sequence (P05177 whole entry): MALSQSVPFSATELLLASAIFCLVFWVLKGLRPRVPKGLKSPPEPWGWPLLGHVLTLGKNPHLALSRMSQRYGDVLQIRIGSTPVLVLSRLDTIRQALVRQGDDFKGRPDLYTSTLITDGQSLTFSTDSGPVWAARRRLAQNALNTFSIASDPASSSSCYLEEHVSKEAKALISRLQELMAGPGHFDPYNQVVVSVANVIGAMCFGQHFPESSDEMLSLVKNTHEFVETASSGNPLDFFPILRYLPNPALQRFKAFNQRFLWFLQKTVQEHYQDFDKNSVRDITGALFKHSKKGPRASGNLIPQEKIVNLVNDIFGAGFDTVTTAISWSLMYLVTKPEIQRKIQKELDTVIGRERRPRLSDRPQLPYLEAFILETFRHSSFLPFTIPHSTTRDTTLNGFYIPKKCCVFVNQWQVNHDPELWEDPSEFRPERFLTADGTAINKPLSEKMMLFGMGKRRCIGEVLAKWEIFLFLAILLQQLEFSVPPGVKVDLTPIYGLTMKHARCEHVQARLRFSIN
# Cytochrome P450 2C9 = Cytochrome P450 2C9 (Homo sapiens, UniProt P11712); experiment: Inhibition of CYP2C9 (unknown origin); type: ADME
# Cytochrome P450 2C9, sequence (P11712 whole entry): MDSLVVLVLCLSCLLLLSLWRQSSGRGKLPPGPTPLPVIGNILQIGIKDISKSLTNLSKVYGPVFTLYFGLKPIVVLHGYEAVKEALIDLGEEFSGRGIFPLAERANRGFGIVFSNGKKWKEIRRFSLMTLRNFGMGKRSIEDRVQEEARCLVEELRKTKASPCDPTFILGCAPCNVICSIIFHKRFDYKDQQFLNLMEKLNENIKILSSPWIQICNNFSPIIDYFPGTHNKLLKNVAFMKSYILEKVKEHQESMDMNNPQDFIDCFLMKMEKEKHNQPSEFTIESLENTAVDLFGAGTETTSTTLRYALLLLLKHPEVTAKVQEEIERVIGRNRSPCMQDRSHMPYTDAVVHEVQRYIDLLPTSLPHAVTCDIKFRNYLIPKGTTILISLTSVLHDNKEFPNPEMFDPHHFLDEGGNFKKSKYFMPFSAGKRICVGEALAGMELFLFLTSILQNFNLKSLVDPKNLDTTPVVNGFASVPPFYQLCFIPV
# Cytochrome P450 2C19 = Cytochrome P450 2C19 (Homo sapiens, UniProt P33261); experiment: Inhibition of CYP2C19 (unknown origin); type: ADME
# Cytochrome P450 2C19, sequence (P33261 whole entry): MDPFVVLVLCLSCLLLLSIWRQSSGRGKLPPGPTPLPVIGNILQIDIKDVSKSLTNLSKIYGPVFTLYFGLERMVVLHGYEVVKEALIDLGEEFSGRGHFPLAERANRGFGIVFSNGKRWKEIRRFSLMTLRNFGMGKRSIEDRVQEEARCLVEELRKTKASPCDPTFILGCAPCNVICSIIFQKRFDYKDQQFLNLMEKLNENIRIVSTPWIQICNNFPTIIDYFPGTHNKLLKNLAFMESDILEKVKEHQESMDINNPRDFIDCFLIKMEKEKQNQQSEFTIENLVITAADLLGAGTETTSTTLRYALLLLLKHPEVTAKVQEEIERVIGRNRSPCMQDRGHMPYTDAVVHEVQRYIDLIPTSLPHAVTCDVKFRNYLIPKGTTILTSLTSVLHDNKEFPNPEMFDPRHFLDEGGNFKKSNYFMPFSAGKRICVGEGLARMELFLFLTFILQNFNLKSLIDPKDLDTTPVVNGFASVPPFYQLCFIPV
# Cytochrome P450 2D6 = Cytochrome P450 2D6 (Homo sapiens, UniProt P10635); experiment: Inhibition of CYP2D6 (unknown origin); type: ADME
# Cytochrome P450 2D6, sequence (P10635 whole entry): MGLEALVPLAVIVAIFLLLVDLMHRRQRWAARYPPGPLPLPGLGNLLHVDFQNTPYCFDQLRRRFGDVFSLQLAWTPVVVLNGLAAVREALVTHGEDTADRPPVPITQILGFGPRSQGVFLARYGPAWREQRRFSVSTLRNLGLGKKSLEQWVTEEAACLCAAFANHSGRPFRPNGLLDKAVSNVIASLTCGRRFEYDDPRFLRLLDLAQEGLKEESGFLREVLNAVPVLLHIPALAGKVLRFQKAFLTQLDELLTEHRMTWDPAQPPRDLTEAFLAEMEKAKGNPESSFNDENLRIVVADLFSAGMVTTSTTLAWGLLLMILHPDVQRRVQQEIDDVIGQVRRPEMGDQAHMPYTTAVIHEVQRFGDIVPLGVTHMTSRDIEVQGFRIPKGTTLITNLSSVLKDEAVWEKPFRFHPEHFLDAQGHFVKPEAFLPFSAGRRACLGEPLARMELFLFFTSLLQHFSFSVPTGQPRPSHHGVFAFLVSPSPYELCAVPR
# Cytochrome P450 3A4 [12] = biological target: T2, Cytochrome P450 3A4 (Homo sapiens, UniProt P08684); experiment: Inhibition of CYP3A4T (unknown origin); type: ADME
# T2 sequence (P08684 whole entry): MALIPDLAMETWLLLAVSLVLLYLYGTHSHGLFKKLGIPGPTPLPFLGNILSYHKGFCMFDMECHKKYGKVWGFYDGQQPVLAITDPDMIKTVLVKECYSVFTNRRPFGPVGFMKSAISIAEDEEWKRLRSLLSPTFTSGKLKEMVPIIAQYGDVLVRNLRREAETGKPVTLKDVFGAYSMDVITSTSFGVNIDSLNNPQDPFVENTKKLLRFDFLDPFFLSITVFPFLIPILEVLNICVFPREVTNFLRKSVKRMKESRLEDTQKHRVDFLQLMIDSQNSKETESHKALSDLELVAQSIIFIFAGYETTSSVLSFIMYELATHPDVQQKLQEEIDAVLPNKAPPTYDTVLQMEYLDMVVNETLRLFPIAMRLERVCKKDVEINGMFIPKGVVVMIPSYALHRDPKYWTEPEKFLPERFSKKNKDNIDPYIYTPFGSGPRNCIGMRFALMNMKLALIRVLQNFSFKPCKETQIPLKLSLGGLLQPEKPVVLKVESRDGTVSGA
# Cytochrome P450 3A4 [13] = biological target: T2, Cytochrome P450 3A4; experiment: Inhibition of CYP3A4M (unknown origin); type: ADME
# [14] = Half life in Sprague-Dawley rat at 1 mg/kg,iv; type: ADME, organism-based; details: in vivo
# [15] = Half life in Sprague-Dawley rat at 5 mg/kg,po; type: ADME, organism-based; details: in vivo
# [16] = Tmax in Sprague-Dawley rat at 1 mg/kg,iv; type: ADME, organism-based; details: in vivo
# [17] = Tmax in Sprague-Dawley rat at 5 mg/kg,po; type: ADME, organism-based; details: in vivo
# [18] = Cmax in Sprague-Dawley rat at 1 mg/kg,iv; type: ADME, organism-based; design: dose 1 mg/kg, route iv; details: in vivo
# [19] = Cmax in Sprague-Dawley rat at 5 mg/kg,po; type: ADME, organism-based; design: dose 5 mg/kg, route po; details: in vivo
# [20] = AUC (0 to t) in Sprague-Dawley rat at 1 mg/kg,iv; type: ADME, organism-based; design: dose 1 mg/kg, route iv; details: in vivo
# [21] = AUC (0 to t) in Sprague-Dawley rat at 5 mg/kg,po; type: ADME, organism-based; design: dose 5 mg/kg, route po; details: in vivo
# [22] = Clearance in Sprague-Dawley rat at 1 mg/kg,iv; type: ADME, organism-based; details: in vivo
# [23] = Clearance in Sprague-Dawley rat at 5 mg/kg,po; type: ADME, organism-based; details: in vivo
# [24] = MRT (0 to t) in Sprague-Dawley rat at 1 mg/kg,iv; type: ADME, organism-based; details: in vivo
# [25] = MRT (0 to t) in Sprague-Dawley rat at 5 mg/kg,po; type: ADME, organism-based; details: in vivo
# [26] = MRT (0 to infinity) in Sprague-Dawley rat at 1 mg/kg,iv; type: ADME, organism-based; details: in vivo
# [27] = MRT (0 to infinity) in Sprague-Dawley rat at 5 mg/kg,po; type: ADME, organism-based; details: in vivo
# [28] = biological target: Voltage-gated inwardly rectifying potassium channel KCNH2 (Homo sapiens, UniProt Q12809); experiment: Inhibition of human ERG potassium channel expressed in CHO cells by automated patch clamp electrophysiological assay; type: toxicity, cell-based
# Voltage-gated inwardly rectifying potassium channel KCNH2, sequence (Q12809 whole entry): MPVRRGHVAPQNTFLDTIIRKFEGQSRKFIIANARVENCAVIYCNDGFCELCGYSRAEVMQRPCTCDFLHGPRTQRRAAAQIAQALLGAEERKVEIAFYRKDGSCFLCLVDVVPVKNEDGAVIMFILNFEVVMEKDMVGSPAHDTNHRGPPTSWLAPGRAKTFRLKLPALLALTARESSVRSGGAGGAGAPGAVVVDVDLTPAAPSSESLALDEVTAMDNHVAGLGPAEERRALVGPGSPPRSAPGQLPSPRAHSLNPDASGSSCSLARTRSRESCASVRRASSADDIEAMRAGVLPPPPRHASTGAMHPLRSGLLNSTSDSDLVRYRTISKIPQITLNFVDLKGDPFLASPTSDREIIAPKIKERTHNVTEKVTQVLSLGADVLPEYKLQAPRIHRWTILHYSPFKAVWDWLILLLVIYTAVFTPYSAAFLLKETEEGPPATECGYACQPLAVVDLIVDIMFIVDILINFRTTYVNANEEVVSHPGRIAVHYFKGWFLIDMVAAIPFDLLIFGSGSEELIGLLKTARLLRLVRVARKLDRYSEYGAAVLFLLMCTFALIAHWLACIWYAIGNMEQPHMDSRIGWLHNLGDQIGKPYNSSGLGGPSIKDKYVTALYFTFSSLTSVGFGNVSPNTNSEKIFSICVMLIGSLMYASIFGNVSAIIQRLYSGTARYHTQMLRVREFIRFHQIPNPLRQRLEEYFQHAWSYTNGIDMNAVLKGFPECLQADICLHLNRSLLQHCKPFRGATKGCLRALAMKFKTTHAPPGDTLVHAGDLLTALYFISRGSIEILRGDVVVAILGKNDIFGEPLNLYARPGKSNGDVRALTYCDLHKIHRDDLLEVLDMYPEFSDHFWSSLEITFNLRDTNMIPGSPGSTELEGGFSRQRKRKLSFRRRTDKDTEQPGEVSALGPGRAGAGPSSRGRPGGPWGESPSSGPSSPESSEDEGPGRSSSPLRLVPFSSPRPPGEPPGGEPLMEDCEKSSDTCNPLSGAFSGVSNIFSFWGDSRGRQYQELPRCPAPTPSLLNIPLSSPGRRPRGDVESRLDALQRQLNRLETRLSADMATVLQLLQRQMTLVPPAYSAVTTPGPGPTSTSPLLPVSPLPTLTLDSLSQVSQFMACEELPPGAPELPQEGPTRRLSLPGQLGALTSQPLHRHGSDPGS
# [29] = Acute toxicity in mouse at 1.2 g/Kg,IG assessed as mouse death; details: in vivo, po, 1200 mg/kg
# [30] = Acute toxicity in mouse at 1.2 g/Kg,IG assessed as change in body weight; details: in vivo, po, 1200 mg/kg
# [31] = Acute toxicity in mouse at 1.2 g/Kg,IG assessed as behavioral abnormalities; details: in vivo, po, 1200 mg/kg
# [32] = Acute toxicity in mouse at 1.2 g/Kg,IG assessed as brain damage by H and E staining based analysis; type: tissue-based; details: in vivo, po, 1200 mg/kg
# [33] = Acute toxicity in mouse at 1.2 g/Kg,IG assessed as heart damage by H and E staining based analysis; type: tissue-based; details: in vivo, po, 1200 mg/kg
# [34] = Acute toxicity in mouse at 1.2 g/Kg,IG assessed as liver damage by H and E staining based analysis; details: in vivo, po, 1200 mg/kg
# [35] = Acute toxicity in mouse at 1.2 g/Kg,IG assessed as spleen damage by H and E staining based analysis; details: in vivo, po, 1200 mg/kg
# [36] = Acute toxicity in mouse at 1.2 g/Kg,IG assessed as lung damage by H and E staining based analysis; details: in vivo, po, 1200 mg/kg
# [37] = Acute toxicity in mouse at 1.2 g/Kg,IG assessed as kidney damage by H and E staining based analysis; details: in vivo, po, 1200 mg/kg
# [38] = AUC (0 to infinity) in Sprague-Dawley rat at 1 mg/kg,iv; type: ADME, organism-based; design: time infinity, dose 1 mg/kg, route iv; details: in vivo
# [39] = AUC (0 to infinity) in Sprague-Dawley rat at 5 mg/kg,po; type: ADME, organism-based; design: time infinity, dose 5 mg/kg, route po; details: in vivo
smiles,measurement,setting,value
Cc1cccc(-c2cc(C#N)cc(Oc3c(C(F)(F)F)ccn(Cc4n[nH]c(=O)n4C)c3=O)c2)c1,EC50,[1],13 nM
same,EC50,[2],> 35 µM
same,selectivity ratio,[3],2020
same,EC50,[4],24 nM
same,EC50,[5],13 nM
same,EC50,[6],58 nM
same,EC50,[7],760 nM
same,EC50,[8],25 nM
same,EC50,[9],27.5 µM
same,EC50,[10],260 nM
same,IC50,[11],41 nM
same,IC50,Cytochrome P450 1A2,> 50 µM
same,IC50,Cytochrome P450 2C9,38.3 µM
same,IC50,Cytochrome P450 2C19,28.6 µM
same,IC50,Cytochrome P450 2D6,> 50 µM
same,IC50,Cytochrome P450 3A4 [12],25.3 µM
same,IC50,Cytochrome P450 3A4 [13],> 50 µM
same,half-life,[14],114 min
same,half-life,[15],507 min
same,Tmax,[16],4.8 min
same,Tmax,[17],6.67 h
same,Cmax,[18],469 ng/mL
same,Cmax,[19],583 ng/mL
same,AUC(0-t),[20],892 ng·h/mL
same,AUC(0-t),[21],4980 ng·h/mL
same,clearance,[22],17.9 mL/min/kg
same,CL/F,[23],13.2 mL/min/kg
same,MRT last,[24],2.03 h
same,MRT last,[25],6.79 h
same,MRT inf,[26],2.48 h
same,MRT inf,[27],13.9 h
same,IC50,[28],> 200 µM
same,Activity,[29],Non-Toxic
same,Activity,[30],Non-Toxic
same,Activity,[31],Non-Toxic
same,Activity,[32],Non-Toxic
same,Activity,[33],Non-Toxic
same,Activity,[34],Non-Toxic
same,Activity,[35],Non-Toxic
same,Activity,[36],Non-Toxic
same,Activity,[37],Non-Toxic
same,AUC(0-inf),[38],940 ng·h/mL
same,AUC(0-inf),[39],6590 ng·h/mL
